Literature values, collected in patent US10137245B2 (priority 2010, dated 2018).

Legend:
healthy human volunteers = details: intrathecal morphine group; extremely low plasma levels; Bailey and colleagues
human surgical patients = details: propofol concentration, Shafer et al 1988

Structure (SMILES)	Effect on HRV (healthy human volunteers)	EC50 for awakening (human surgical patients) [µg/mL]	EC50 for orientation (human surgical patients) [µg/mL]
CN1CC[C@]23c4c5ccc(O)c4O[C@H]2[C@@H](O)C=C[C@H]3[C@H]1C5 [morphine]	substantial reduction		
CC(C)c1cccc(C(C)C)c1O [propofol, 2,6-diisopropylphenol]		1.07 ± 0.13	0.95 ± 0.19
